Key:
human Nectin-4 protein = target: T1, human Nectin-4 protein (Homo sapiens, UniProt Q96NY8); assay: Nectin-4 Biacore (SPR) binding assay; details: biotinylated human Nectin-4, 25° C.
T1 construct: Human Nectin-4 (residues Gly32-Ser349); host or cells: Sf21 insect cells (baculovirus, pFastbac-1)
T1 sequence (Q96NY8 32-349): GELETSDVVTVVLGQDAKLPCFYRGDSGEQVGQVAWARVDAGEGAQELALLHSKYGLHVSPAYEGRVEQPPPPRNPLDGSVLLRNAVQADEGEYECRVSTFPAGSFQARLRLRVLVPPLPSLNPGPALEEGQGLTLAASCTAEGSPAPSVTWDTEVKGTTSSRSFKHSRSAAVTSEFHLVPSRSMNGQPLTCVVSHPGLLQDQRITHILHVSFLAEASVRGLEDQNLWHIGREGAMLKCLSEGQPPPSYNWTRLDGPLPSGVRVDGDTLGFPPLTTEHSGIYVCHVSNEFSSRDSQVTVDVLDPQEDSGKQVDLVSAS
Description: Biacore experiments were performed to determine ka (M^−1s^−1), kd (s^−1), KD (nM) values of heterotandem peptides binding to human Nectin-4 protein (obtained from Charles River). Human Nectin-4 (residues Gly32-Ser349; NCBI RefSeq: NP_112178.2) with a gp67 signal sequence and C-terminal FLAG tag was cloned into pFastbac-1 and baculovirus made using standard Bac-to-Bac™ protocols (Life Technologies). Sf21 cells at 1×10^6 ml^−1 in Excell-420 medium (Sigma) at 27° C. were infected at an MOI of 2 with a P1 virus stock and the supernatant harvested at 72 hours. The supernatant was batch bound for 1 hour at 4° C. with Anti-FLAG M2 affinity agarose resin (Sigma) washed in PBS and the resin subsequently transferred to a column and washed extensively with PBS. The protein was eluted with 100 μg/ml FLAG peptide. The eluted protein was concentrated to 2 ml and loaded onto an S-200 Superdex column (GE Healthcare) in PBS at 1 ml/min. 2 ml fractions were collected and the fractions containing Nectin-4 protein were concentrated to 16 mg/ml.
The protein was extensively desalted to remove uncoupled biotin using spin columns into PBS.
For analysis of peptide binding, a Biacore 3000 instrument was used with a CM5 chip (GE Healthcare). Streptavidin was immobilized on the chip using standard amine-coupling chemistry at 25° C. with HBS-N (10 mM HEPES, 0.15 M NaCl, pH 7.4) as the running buffer. Briefly, the carboxymethyl dextran surface was activated with a 7 minute injection of a 1:1 ratio of 0.4 M 1-ethyl-3-(3-dimethylaminopropyl) carbodiimide hydrochloride (EDC)/0.1 M N-hydroxy succinimide (NHS) at a flow rate of 10 μl/min. For capture of streptavidin, the protein was diluted to 0.2 mg/ml in 10 mM sodium acetate (pH 4.5) and captured by injecting 120 μl of streptavidin onto the activated chip surface. Residual activated groups were blocked with a 7 minute injection of 1 M ethanolamine (pH 8.5) and biotinylated Nectin-4 captured to a level of 1,200-1,800 RU. Buffer was changed to PBS/0.05% Tween 20 and a dilution series of the peptides was prepared in this buffer with a final DMSO concentration of 0.5%. The top peptide concentration was 100 nM with 6 further 2-fold dilutions. The SPR analysis was run at 25° C. at a flow rate of 50 μl/min with 60 seconds association and dissociation between 400 and 1,200 seconds depending upon the individual peptide. Data were corrected for DMSO excluded volume effects. All data were double-referenced for blank injections and reference surface using standard processing procedures and data processing and kinetic fitting were performed using Scrubber software, version 2.0c (BioLogic Software). Data were fitted using simple 1:1 binding model allowing for mass transport effects where appropriate.

CD137 [1] = target: T2, CD137 (Homo sapiens, UniProt Q07011); assay: CD137 Biacore (SPR) binding assay; design: purchased R&D systems; details: biotinylated human CD137, 25° C.
Summary of the method: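 Biotinylated human CD137 captured (270-1500 RU) on streptavidin-coupled dextran chip; peptides up to 500 nM in PBS/0.05% Tween 20, 0.5% DMSO, at 25°C, 60 s association, 900 s dissociation. Double-referenced data fitted to 1:1 binding model, with mass transport where appropriate.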

CD137 [2] = target: T2, CD137; assay: CD137 reporter assay, co-culture with Nectin-4 tumour cells; type: cell-based; design: host or cells: Jurkat reporter cells; details: for Fold Induction over Background: tumour target Nectin4, co-culture with H1376, 6 h;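 on all read-outs here: jurkat reporter cells co-cultured with tumour cells and test article for 6 h, luminescence signal relative to Jurkat plus tumour cells lacking test article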
Description: Culture medium referred to as R1 media is prepared by adding 1% FBS to RPMI-1640 (component of Promega kit CS196005). Serial dilutions of test articles in R1 are prepared in a sterile 96 well-plate. Use 25 μl per well of test articles or R1 (as a background control) to designated wells in white cell culture plate. Tumour cells* are harvested and resuspended at a concentration of 400,000 cells/mL in R1 media. Twenty five (25) μL/well tumour cells are used in white cell culture plate. Jurkat cells (Promega kit CS196005, 0.5 mL) are thawed in the water bath and then added to 5 ml pre-warmed R1 medium. Twenty five (25) μL/well Jurkat cells are used in white cell culture plate. Incubate the cells and test articles for 6h at 37° C., 5% CO2. At the end of 6 h, add 75 μl/well Bio-Glo™ (Promega) and incubate for 10 min before reading luminescence in a plate reader (Clariostar, BMG). The fold change relative to cells (Jurkat cells+Cell line used in co-culture) is calculated and plotted in GraphPad Prism as log(agonist) vs response to determine EC50 (nM) and Fold Induction over background (Max)

[3] = tested on: human PBMC co-cultured with 4T1-D02 (Nectin4+); assay: Human PBMC-4T1 co-culture (cytokine release) assay; type: cell-based; details: anti-CD3 stimulated PBMC, 48 hours
Description: Mouse mammary gland tumor cell line 4T1-1 (4T1-Parental) and murine Nectin-4 overexpressing 4T1 (4T1-D02) were cultured in RPMI1640 supplemented with 10% heat-inactivated Fetal Bovine Serum, 100 I.U/ml Penicillin and 100 I.U/Streptomycin, 20 mM HEPES, 1× Non-Essential Amino Acids, and 2 mM L-Glutamine (RPMI working medium). Frozen PBMCs from healthy human donors were thawed and washed one time in room temperature PBS, and then resuspended in RPMI working medium. For tumor cell and PBMC co-culture, 10000 PBMCs and 2000 tumor cells (5:1) were mixed and plated in each well of a 384 well plate. For stimulating human PBMCs, 125 ng/ml of soluble anti-CD3 mAb (clone OKT3) was added to the culture on day 0. Test, control compounds or vehicle controls were added to respective wells and brought the final volume per well to 100u1. Plates were incubated in a 37° C. cell culture incubator with 5% CO2 for up to three days. Supernatants were collected 48 hours after stimulation, and human IL-2 and IFFγ were detected using HTRF assays. Raw data were analyzed using Excel or Prism software to generate standard curves to interpolate protein concentrations. Data represents one study with three different donor PBMC tested in experimental duplicates.

[4] = Pharmacokinetics of CD137 bispecifics in SD rats; type: in vivo; details: male, Sprague-Dawley (SD), SD Rat, 2 mg/kg IV, plasma
Description: Male SD Rats were dosed with 2 mg/kg of each Bicycle multimer formulated in 25 mM Histidine HCl, 10% sucrose pH 7. Serial bleeding (about 80 μL blood/time point) was performed via submadibular or saphenous vein at each time point. All blood samples were immediately transferred into prechilled microcentrifuge tubes containing 2 μL K2-EDTA (0.5M) as anti-coagulant and placed on wet ice. Blood samples were immediately processed for plasma by centrifugation at approximately 4° C., 3000 g. The precipitant including internal standard was immediately added into the plasma, mixed well and centrifuged at 12,000 rpm, 4° C. for 10 minutes. The supernatant was transferred into pre-labeled polypropylene microcentrifuge tubes, and then quick-frozen over dry ice. The samples were stored at […] or below as needed until analysis. 7.5 μL of the supernatant samples were directly injected for LC-MS/MS analysis using an Orbitrap Q Exactive in positive ion mode to determine the concentrations of Bicycle multimer. Plasma concentration versus time data were analyzed by non-compartmental approaches using the Phoenix WinNonlin 6.3 software program. C0, CI, Vdss, T½, AUC(0-last), AUC(0-inf), MRT(0-last), MRT(0-inf) and graphs of plasma concentration versus time profile were reported.

T2 sequence (Q07011 24-255): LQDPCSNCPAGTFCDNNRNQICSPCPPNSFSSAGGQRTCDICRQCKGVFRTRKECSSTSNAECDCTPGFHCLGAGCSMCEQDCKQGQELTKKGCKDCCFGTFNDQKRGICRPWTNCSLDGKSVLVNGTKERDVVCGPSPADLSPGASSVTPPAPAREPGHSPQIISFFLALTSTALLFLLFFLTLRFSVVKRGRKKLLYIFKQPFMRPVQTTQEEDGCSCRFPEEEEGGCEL

Row | Compound | Kd (human Nectin-4 protein) [nM] | Kd (CD137 [1]) [nM] | EC50 (CD137 [2]) [nM] | Fold Induction over Background (CD137 [2]) [fold] | EC50 ([3]; IFN-γ secretion) [nM] | max IFN-y [3] [pg/mL] | clearance ([4]; read-out: Clp) [mL/min/kg] | half-life ([4]; read-out: T½ (converted)) [min] | Vd ([4]; read-out: Vdss) [L/kg]
1 | CCCC[C@@H]1NC(=O)[C@H](Cc2ccc(O)cc2)NC(=O)[C@@H]2CCCN2C(=O)[C@H](CC(=O)O)NC(=O)[C@H](C)NC(=O)[C@H](Cc2ccccc2)NC(=O)[C@@H]2CSCCC(=O)N3CN(CN(C3)C(=O)CCSC[C@@H](C(=O)N[C@@H](CNC(=O)CCc3cn(CCCNC(=O)CN(C)C(=O)CN(C)C(=O)CN(C)C(=O)CN(C)C(=O)CN(C)C(=O)CN(C)C(=O)CN(C)C(=O)CN(C)C(=O)CN(C)C(=O)CN(C)C(=O)COCCOCCOCCOCCOCCOCCOCCOCCOCCOCCNC(=O)N[C@H]4CSCCC(=O)N5CN6CN(C5)C(=O)CCSC[C@H](NC(=O)[C@@H](CC(=O)O)NC(=O)[C@H](Cc5cccc7ccccc57)NC(=O)[C@@H]5CCCN5C4=O)C(=O)N[C@@H](CCSC)C(=O)N[C@@H](CCCCNC(=N)N)C(=O)N[C@@H](CC(=O)O)C(=O)N[C@@H](Cc4c[nH]c5ccccc45)C(=O)N[C@@H](CO)C(=O)N[C@@H]([C@@H](C)O)C(=O)N4CCC[C@H]4C(=O)N4C[C@H](O)C[C@H]4C(=O)N[C@@H](Cc4c[nH]c5ccccc45)C(=O)N[C@H](C(N)=O)CSCCC6=O)nn3)C(N)=O)NC1=O)C(=O)CCSC[C@H](NC(=O)[C@H](C)NC(C)=O)C(=O)N[C@@H]([C@@H](C)CC)C(=O)N[C@@H](CCC(=O)O)C(=O)N[C@@H](CCC(=O)O)C(=O)NCC(=O)N[C@@H](CCC(N)=O)C(=O)N[C@@H](Cc1ccc(O)cc1)C(=O)N2 [BCY9408] | 1.57 | 105 | 1.1 | 20 | – | – | – | – | –
2 | CCCC[C@@H]1NC(=O)[C@H](Cc2ccc(O)cc2)NC(=O)[C@@H]2CCCN2C(=O)[C@H](CC(=O)O)NC(=O)[C@H](C)NC(=O)[C@H](Cc2ccccc2)NC(=O)[C@@H]2CSCCC(=O)N3CN(CN(C3)C(=O)CCSC[C@@H](C(=O)N[C@@H](CNC(=O)CCc3cn(CCCNC(=O)CN(C)C(=O)CN(C)C(=O)CN(C)C(=O)CN(C)C(=O)CN(C)C(=O)CN(C)C(=O)CN(C)C(=O)CN(C)C(=O)CN(C)C(=O)CN(C)C(=O)CN(C)C(=O)CN(C)C(=O)CN(C)C(=O)CN(C)C(=O)CN(C)C(=O)COCCOCCOCCOCCOCCNC(=O)N[C@H]4CSCCC(=O)N5CN6CN(C5)C(=O)CCSC[C@H](NC(=O)[C@@H](CC(=O)O)NC(=O)[C@H](Cc5cccc7ccccc57)NC(=O)[C@@H]5CCCN5C4=O)C(=O)N[C@@H](CCSC)C(=O)N[C@@H](CCCCNC(=N)N)C(=O)N[C@@H](CC(=O)O)C(=O)N[C@@H](Cc4c[nH]c5ccccc45)C(=O)N[C@@H](CO)C(=O)N[C@@H]([C@@H](C)O)C(=O)N4CCC[C@H]4C(=O)N4C[C@H](O)C[C@H]4C(=O)N[C@@H](Cc4c[nH]c5ccccc45)C(=O)N[C@H](C(N)=O)CSCCC6=O)nn3)C(N)=O)NC1=O)C(=O)CCSC[C@H](NC(=O)[C@H](C)NC(C)=O)C(=O)N[C@@H]([C@@H](C)CC)C(=O)N[C@@H](CCC(=O)O)C(=O)N[C@@H](CCC(=O)O)C(=O)NCC(=O)N[C@@H](CCC(N)=O)C(=O)N[C@@H](Cc1ccc(O)cc1)C(=O)N2 [BCY9409] | 1.66 | 97.7 | 1.2 | 24 | – | – | – | – | –
3 | CCCC[C@@H]1NC(=O)[C@H](Cc2ccc(O)cc2)NC(=O)[C@@H]2CCCN2C(=O)[C@H](CC(=O)O)NC(=O)[C@H](C)NC(=O)[C@H](Cc2ccccc2)NC(=O)[C@@H]2CSCCC(=O)N3CN(CN(C3)C(=O)CCSC[C@@H](C(=O)N[C@@H](CNC(=O)CCOCCOCCOCCOCCOCCOCCOCCOCCOCCOCCOCCOCCn3cc(CCC(=O)NCCC(=O)N(C)CC(=O)N(C)CC(=O)N(C)CC(=O)N(C)CC(=O)N(C)CC(=O)N(C)CC(=O)N(C)CC(=O)N(C)CC(=O)N(C)CC(=O)N(C)CC(=O)N[C@H]4CSCCC(=O)N5CN6CN(C5)C(=O)CCSC[C@H](NC(=O)[C@@H](CC(=O)O)NC(=O)[C@H](Cc5cccc7ccccc57)NC(=O)[C@@H]5CCCN5C4=O)C(=O)N[C@@H](CCSC)C(=O)N[C@@H](CCCCNC(=N)N)C(=O)N[C@@H](CC(=O)O)C(=O)N[C@@H](Cc4c[nH]c5ccccc45)C(=O)N[C@@H](CO)C(=O)N[C@@H]([C@@H](C)O)C(=O)N4CCC[C@H]4C(=O)N4C[C@H](O)C[C@H]4C(=O)N[C@@H](Cc4c[nH]c5ccccc45)C(=O)N[C@H](C(N)=O)CSCCC6=O)nn3)C(N)=O)NC1=O)C(=O)CCSC[C@H](NC(C)=O)C(=O)N[C@@H](CC(C)(C)C)C(=O)N1CCC[C@H]1C(=O)N[C@@H](CCC(=O)O)C(=O)N[C@H](C)C(=O)N1CCC[C@H]1C(=O)N[C@@H](Cc1ccc(O)cc1)C(=O)N2 [BCY10000] | – | – | – | 61 | 0.21 | 19642 | 16.1 | 21.4 | 0.395

Reference: patent publication US11453703B2, “Heterotandem bicyclic peptide complexes” (BicycleTX Limited, priority 2018, dated 2022)
